Experimental data: ChEMBL document CHEMBL1142480, “Use of the X-ray structure of the beta2-adrenergic receptor for drug discovery. Part 2: Identification of active compounds” (Bioorg Med Chem Lett, 2008)
pKi: −log10 of the molar value.

Biological target: Beta-2 adrenergic receptor (Homo sapiens, UniProt P07550)
Sequence (P07550 whole entry): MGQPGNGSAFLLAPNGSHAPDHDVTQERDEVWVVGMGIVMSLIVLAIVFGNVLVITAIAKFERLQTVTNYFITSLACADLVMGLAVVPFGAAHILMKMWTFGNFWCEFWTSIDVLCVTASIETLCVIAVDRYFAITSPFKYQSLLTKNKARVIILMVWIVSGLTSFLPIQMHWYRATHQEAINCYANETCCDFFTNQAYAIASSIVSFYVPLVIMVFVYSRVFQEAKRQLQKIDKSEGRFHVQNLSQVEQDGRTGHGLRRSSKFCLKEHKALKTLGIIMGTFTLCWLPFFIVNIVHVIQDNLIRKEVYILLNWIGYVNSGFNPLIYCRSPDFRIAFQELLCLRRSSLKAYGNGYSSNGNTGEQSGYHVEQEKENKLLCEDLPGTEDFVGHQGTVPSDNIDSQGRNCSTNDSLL
Description: Displacement of [3H]DHA from human beta2 adrenoceptor by liquid scintillation counter

SMILES | pKi
N#Cc1cc2c(OCC(O)CN3CCN(C(c4ccccc4)c4ccccc4)CC3)cccc2[nH]1 (centres undefined) | 7.24
CC(C)(C)NCC(O)COc1cccc2[nH]cc(CC(N)=O)c12 (centres undefined) | 7.63
Cc1c[nH]c2cccc(OCC(O)CN3CCN(C(c4ccccc4)c4ccccc4)CC3)c12 (centres undefined) | 9.51
CC(C)(C)NCC(O)COc1cccc2oc3ccccc3c12 (centres undefined) | 9.84
